From publication PMC11249646, “Small-Molecule Disruptors of the Interaction between Calcium- and Integrin-Binding Protein 1 and Integrin αIIbβ3 as Novel Antiplatelet Agents” (ACS Pharmacology & Translational Science, 2024)
Like-named read-outs stand apart in the source and are kept apart here.

Experiments:
Type in all cases: binding
[1] = target: T1, CIB1 and αIIb interaction (CIB1-GST : F-αIIb peptide) (Homo sapiens, UniProt Q99828); assay: FP assay, 1536-well qHTS format (primary and confirmatory screen)
T1 construct: made in house; host or cells: BL-21 plus RIL cells (E. coli)
T1 sequence (Q99828 1-191): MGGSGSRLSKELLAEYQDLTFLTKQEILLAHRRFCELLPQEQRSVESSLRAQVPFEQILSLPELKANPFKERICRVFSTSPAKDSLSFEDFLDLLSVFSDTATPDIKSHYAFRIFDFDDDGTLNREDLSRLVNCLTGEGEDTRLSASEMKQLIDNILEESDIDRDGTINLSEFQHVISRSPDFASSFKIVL

[2] = target: T2, CIB1 and αIIb interaction (GST-CIB1 : F-αIIb peptide) (Homo sapiens, UniProt Q99828); assay: FP assay, 384-well format (screen); set-up: 384-well SCREEN Efficacy (%): concentration or dose not given beside the values; conditions: for IC50: read-out: 384-well SCREEN IC50
T2 construct: made in house; host or cells: BL-21 plus RIL cells (E. coli)
T2 sequence (Q99828 1-191): T1 sequence (Q99828 1-191)

[3] = target: T3, GST-CIB1 : F-scrambled peptide (Homo sapiens, UniProt Q99828); assay: FP scrambled-peptide counter screen, 384-well format; conditions: for 384-well COUNTERSCREEN Confirm?: *: Curve in opposite direction; for IC50: read-out: 384-well COUNTERSCREEN IC50
T3 construct: made in house; host or cells: BL-21 plus RIL cells (E. coli)
T3 sequence (Q99828 1-191): T1 sequence (Q99828 1-191)

[4] = target: T3, GST-CIB1 : F-scrambled peptide; assay: FP scrambled-peptide counter screen, 1536-well format; conditions: for IC50: read-out: COUNTERSCREEN IC50
[5] = confirmatory screen, YES/NO call
[6] = confirmatory screen, qHTS curve class, negative sign = inhibitory curve
[7] = confirmatory screen, negative = inhibition
[8] = confirmatory screen, read-out: CONFIRMATORY SCREEN IC50
[9] = scrambled-peptide counterscreen
[10] = scrambled-peptide counterscreen, YES/NO call
[11] = qHTS FP screen hits, Table S2, negative = inhibition
[12] = qHTS FP screen hits, Table S2, one class per curve where COUNT > 1, negative sign = inhibitory curve
[13] = qHTS FP screen hits, Table S2, read-out: IC50
[14] = scrambled-peptide counterscreen, qHTS curve class
[15] = qHTS primary screen hits, Table S2, negative = inhibition
[16] = qHTS primary screen hits, Table S2, negative sign = inhibitory curve, several classes where COUNT > 1
[17] = qHTS primary screen hits, Table S2, read-out: IC50

| Compound | CONFIRMATORY SCREEN Confirm? [1, 5] | CONFIRMATORY SCREEN Curve Class [1, 6] | CONFIRMATORY SCREEN Efficacy (%) [1, 7] [%] | IC50 [1, 8] [µM] | 384-well SCREEN Efficacy (%) ([2]; F-αIIb peptide) | 384-well SCREEN Confirm? ([2]; F-αIIb peptide, YES/NO) | IC50 ([2]; F-αIIb peptide) [µM] | 384-well COUNTERSCREEN Efficacy (%) ([3]; F-scrambled peptide) | 384-well COUNTERSCREEN Confirm? ([3]; F-scrambled peptide) | IC50 ([3]; F-scrambled peptide) [µM] | COUNTERSCREEN Efficacy (%) [4, 9] [%] | COUNTERSCREEN Confirm? [4, 10] | COUNTERSCREEN Curve Class [4, 14] | Efficacy (%) [1, 15] [%] | Curve Class [1, 16] | IC50 [1, 17] [µM] | further results |
| --- | --- | --- | --- | --- | --- | --- | --- | --- | --- | --- | --- | --- | --- | --- | --- | --- | --- |
| CCOC(=O)c1nnc(NS(=O)(=O)c2ccc(NC(=O)Cc3ccc(Cl)c(Cl)c3)cc2)s1.O=C(O)C(F)(F)F [NCGC00248354-01] | YES | -1.2 | -47 | 15.8 | 31 | YES | 28.2 | 20 | YES | > 120 | 66 | YES | – | – | – | – | IC50 [4, 9]: 44.7 µM |
| Cc1ccc(-c2csc(NC(=O)c3ccncc3NS(=O)(=O)c3ccc(C)cc3)n2)cc1.O=C(O)C(F)(F)F [NCGC00319008-01] | YES | -1.2 | -50 | – | 46 | YES | 10.7 | 70 | YES* | 8.9 | 26 | YES | 4 | – | – | – | Efficacy (%) [1, 11]: -45%; Curve Class [1, 12]: -1.2; IC50 [1, 13]: 17.8 µM |
| Cc1ccc(S(=O)(=O)Nc2nn3c(=O)c4ccccc4nc3s2)cc1C.O=C(O)C(F)(F)F [NCGC00187578-01] | YES | -2.2 | -46 | 11.2 | 27 | – | > 120 | 12 | – | > 120 | 39 | YES | 4 | -22 | -1.4 | 14.1 | – |
| NS(=O)(=O)c1ccc(Cc2c(-c3cccc(-c4ccccc4F)c3)nn(-c3nc(C(=O)O)cs3)c2O)cc1.O=C(O)C(F)(F)F [NCGC00356464-01] | YES | -1.2 | -74 | 39.8 | 57 | YES | 22.4 | 34 | Inconclusive | 10 | -32 | YES | 4 | -63 | -2.2 | 79.4 | Confirm and Selective? ([2]; selective toward αIIb: negative curve class and/or IC50 ratio of >3-fold and/or >2-fold efficacy vs scrambled peptide): Inconclusive |
| COc1cc(C(=O)NS(=O)(=O)c2ccccc2C)ccc1Cc1cn(C)c2ccc(NC(=O)OC3CCCC3)cc12 [NCGC00164547-06] | YES | -1.2 | -58 | 14.1 | 38 | YES | 9.6 | 60 | YES* | 1 | 37 | YES | – | -38 | -2.4 | 35.5 | IC50 [4, 9]: 50.1 µM |
| Cl.NC(CO)(CO)CCc1ccc(Sc2cccc(OCc3ccccc3)c2)cc1Cl [NCGC00250388-02] | YES | -2.4 | -80 | 50.1 | 57 | YES | 31.6 | 17 | YES | > 120 | -28 | YES | 4 | -71 | -2.2 | 79.4 | – |
| Cc1ccc(S(=O)(=O)Nc2cnccc2C(=O)Nc2nc(-c3ccc4c(c3)CCCC4)cs2)cc1.O=C(O)C(F)(F)F [NCGC00318953-01] | YES | -1.2 | -70 | – | 20 | – | > 120 | 125 | – | 35.5 | -23 | YES | 4 | – | – | – | Efficacy (%) [1, 11]: -37%; Curve Class [1, 12]: -1.2; IC50 [1, 13]: 20 µM |
| Cc1ccc(C)n1-c1cccc(C(=O)O)c1.O=C(O)C(F)(F)F [NCGC00060597-02] | YES | -1.2 | -42 | 8.9 | 30 | YES | 17.7 | 24 | YES | > 120 | -11 | YES | 4 | – | – | – | – |
| CC[P](CC)(CC)=[Au][S][C@@H]1O[C@H](COC(C)=O)[C@@H](OC(C)=O)[C@H](OC(C)=O)[C@H]1OC(C)=O [NCGC00160391-02] | – | – | – | – | – | – | – | – | – | – | – | – | – | – | – | – | CONFIRMATORY SCREEN Confirm? [1]: YES; CONFIRMATORY SCREEN Curve Class [1]: -1.2; CONFIRMATORY SCREEN Efficacy (%) [1]: -36%; IC50 ([1]; read-out: CONFIRMATORY SCREEN IC50): 31.6 µM; 384-well SCREEN Confirm? [2]: YES; 384-well SCREEN Efficacy (%) [2]: 69%; IC50 [2]: 6.3 µM; 384-well COUNTERSCREEN Efficacy (%) [3]: 52%; IC50 [3]: 8.9 µM; COUNTERSCREEN Confirm? [4]: YES; COUNTERSCREEN Curve Class [4]: 4; COUNTERSCREEN Efficacy (%) [4]: -14% |
| C=CCNc1oc(-c2ccc(-c3ccccc3)cc2)nc1C#N.O=C(O)C(F)(F)F [NCGC00183413-01] | YES | -1.2 | -66 | 17.8 | 74 | YES | 7.1 | 58 | – | 7.1 | -17 | YES | 4 | -28 | -1.4 | 10 | – |
| COc1cccc(-c2csc(NC(=O)c3ccncc3NS(=O)(=O)c3ccc(C)cc3)n2)c1 [NCGC00319006-02] | YES | -2.2 | -89 | 31.6 | 52 | YES | 20 | 18 | YES | > 120 | -41 | YES | -3 | – | – | – | IC50 [4, 9]: 89.1 µM |
| CCc1ccc(/C=C2/SC(=S)NC2=O)cc1 [NCGC00185994-01] | YES | -1.1 | -93 | 8.9 | 44 | YES | 17.8 | 68 | YES | > 120 | 0 | YES | 4 | – | – | – | Efficacy (%) [1, 11]: -43%; IC50 [1, 13]: 8.2 µM |
| CCc1oc2ccccc2c1C(=O)c1cc(Br)c(O)c(Br)c1 [NCGC00013895-08] | YES | -1.2 | -66 | 22.4 | 39 | YES | 25.1 | 60 | YES | 12.6 | 52 | YES | – | – | – | – | IC50 [4, 9]: 20 µM |
| CC(O)c1ccc(-c2ccc3ncnc(NCc4nccs4)c3c2)o1.O=C(O)C(F)(F)F (stereo not drawn) [NCGC00238382-01] | YES | -3 | -53 | – | 61 | YES | 14.1 | 36 | YES | 17.7 | 0 | YES | 4 | – | – | – | Efficacy (%) [1, 11]: -63%; Curve Class [1, 12]: -2.2; IC50 [1, 13]: 39.8 µM |
